Measurements from PMC11249626, “Fluorophore-Labeled Pyrrolones Targeting the Intracellular Allosteric Binding Site of the Chemokine Receptor CCR1” (ACS Pharmacology & Translational Science, 2024).
Blank lines part the entries; values can stand above or below the compound they belong to.

What was measured:
[1] = molecular target: T1, CCR2 (Homo sapiens, UniProt P41597); assay: NanoBRET competition binding assay for CCR2 based on 7, as previously reported; conditions: compound at 100 μM; read-out: % inh. of tracer binding, CCR2
T1 construct: host or cells: HEK293T, transient
T1 sequence (P41597 1-360 isoform P41597-2): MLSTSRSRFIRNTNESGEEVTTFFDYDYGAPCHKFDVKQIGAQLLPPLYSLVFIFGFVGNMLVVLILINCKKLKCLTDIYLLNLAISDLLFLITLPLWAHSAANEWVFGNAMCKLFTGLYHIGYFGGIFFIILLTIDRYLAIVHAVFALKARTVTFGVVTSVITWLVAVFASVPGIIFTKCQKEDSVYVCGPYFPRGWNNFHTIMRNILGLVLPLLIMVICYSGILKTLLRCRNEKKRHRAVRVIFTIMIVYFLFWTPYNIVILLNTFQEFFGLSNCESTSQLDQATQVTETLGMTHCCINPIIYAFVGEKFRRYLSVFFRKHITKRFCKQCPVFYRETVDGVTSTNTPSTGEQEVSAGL
From the text: With 6 (Figure 1), a first lead structure for intracellular CCR1 inhibition that features an approximately 20-fold CCR1 over CCR2 selectivity was previously discovered by Ortiz Zacarías et al.([33]) In order to discover new chemotypes for selective CCR1 over CCR2 inhibition, we aimed to apply our novel NanoBRET competition binding assay for CCR1 in combination with our recently published CCR2 competition binding assay based on 7.[47] In our first attempt, we screened a small in-house library enriched with intracellular GPCR ligands and structural analogues thereof. […] Additionally, we tested 23 for binding to the IABS of CCR9 and CXCR2 using our recently reported NanoBRET-based assay platform (Figure 6C).[44],[45] In the course of these studies, we detected no binding of 23 to CCR9 and CXCR2 up to a concentration of 20 μM. Since cell lineage-dependent effects have been observed for CCR1 antagonists,[59] we studied the CCR1 over CCR2 selectivity of 23 by using a previously reported radioligand binding assay with membrane preparations from osteosarcoma (U2OS) cells stably expressing human CCR1 or CCR2.[33] […] In agreement with these previous reports,[33] we observed a reduction in CCR1 over CCR2 selectivity when moving from membrane-based binding assays to cell-based functional assays. […] To investigate a potential signaling bias of 23, we tested the compound by means of a NanoBiT miniGi recruitment assay.[60] […] Thus, this indicated no strong signaling bias of 23 (Figures S9E and S10C). To elucidate the SAR of this new scaffold for selective CCR1 over CCR2 inhibition, we synthesized several analogues of 23 (24–40) and tested them by means of our NanoBRET competition binding assays (Schemes S2 and S3, Table 1, Figures 6F and S11). First, we aimed to examine the impact of the stereochemistry of 23 on CCR1 affinity. As for the structurally related pyrrolone 4, large differences in CCR2 affinity between the eutomer 4-[R] and the distomer 4-[S] were described.[61] […] Furthermore, we identified the 4-hydroxyphenethyl group at position 1 of the pyrrolone scaffold as highly important for CCR1 affinity and selectivity. Its presence seems to block CCR2 binding, also when combined with the structural features of the high-affinity CCR2 ligand 5, as exemplified by 24. Especially the 4-hydroxy group at this moiety is essential for CCR1 binding (see 25 and 26). […] In position 5 of the pyrrolone, several aromatic and aliphatic substituents were tolerated (see 31–35).

[2] = molecular target: T2, CCR9 (Homo sapiens, UniProt P51686); assay: NanoBRET-based assay for binding to the IABS of CCR9, as previously reported; conditions: compound at 20 μM; read-out: % inh. of tracer binding, CCR9
T2 construct: host or cells: HEK293T, transient
T2 sequence (P51686 1-369): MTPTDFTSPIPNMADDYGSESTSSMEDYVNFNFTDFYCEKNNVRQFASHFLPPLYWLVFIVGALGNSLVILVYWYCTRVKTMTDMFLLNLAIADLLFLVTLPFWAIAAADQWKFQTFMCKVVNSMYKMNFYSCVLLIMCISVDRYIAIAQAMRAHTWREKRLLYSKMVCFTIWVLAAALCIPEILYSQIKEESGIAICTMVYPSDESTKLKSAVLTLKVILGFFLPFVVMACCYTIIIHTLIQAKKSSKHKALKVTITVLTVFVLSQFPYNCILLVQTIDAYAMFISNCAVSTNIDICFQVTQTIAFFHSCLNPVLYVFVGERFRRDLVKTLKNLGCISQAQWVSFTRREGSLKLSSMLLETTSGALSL
From the text: (§1) With 6 (Figure 1), a first lead structure for intracellular CCR1 inhibition that features an approximately 20-fold CCR1 over CCR2 selectivity was previously discovered by Ortiz Zacarías et al.([33]) In order to discover new chemotypes for selective CCR1 over CCR2 inhibition, we aimed to apply our novel NanoBRET competition binding assay for CCR1 in combination with our recently published CCR2 competition binding assay based on 7.[47] In our first attempt, we screened a small in-house library enriched with intracellular GPCR ligands and structural analogues thereof. […] Additionally, we tested 23 for binding to the IABS of CCR9 and CXCR2 using our recently reported NanoBRET-based assay platform (Figure 6C).[44],[45] In the course of these studies, we detected no binding of 23 to CCR9 and CXCR2 up to a concentration of 20 μM. Since cell lineage-dependent effects have been observed for CCR1 antagonists,[59] we studied the CCR1 over CCR2 selectivity of 23 by using a previously reported radioligand binding assay with membrane preparations from osteosarcoma (U2OS) cells stably expressing human CCR1 or CCR2.[33] […] In agreement with these previous reports,[33] we observed a reduction in CCR1 over CCR2 selectivity when moving from membrane-based binding assays to cell-based functional assays. […]

[3] = molecular target: T3, CXCR2 (Homo sapiens, UniProt P25025); assay: NanoBRET-based assay for binding to the IABS of CXCR2, as previously reported; conditions: compound at 20 μM; read-out: % inh. of tracer binding, CXCR2
T3 construct: host or cells: HEK293T, transient
T3 sequence (P25025 1-360): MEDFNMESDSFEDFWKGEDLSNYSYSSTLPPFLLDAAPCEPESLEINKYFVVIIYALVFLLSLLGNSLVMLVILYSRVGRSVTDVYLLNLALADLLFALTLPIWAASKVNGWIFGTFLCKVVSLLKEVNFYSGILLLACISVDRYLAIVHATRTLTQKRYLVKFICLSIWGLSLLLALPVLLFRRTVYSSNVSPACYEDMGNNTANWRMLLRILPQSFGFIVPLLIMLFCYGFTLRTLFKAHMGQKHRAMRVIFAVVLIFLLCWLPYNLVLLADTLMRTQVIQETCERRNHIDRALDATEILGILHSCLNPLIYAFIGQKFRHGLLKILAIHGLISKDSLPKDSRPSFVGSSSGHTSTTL
From the text: as §1

[4] = molecular target: T4, CCR1 (Homo sapiens, UniProt P32246); assay: Membrane-based NanoBRET competition assay with 12 (2000 nM) and CCR1_Nluc membranes; type: binding; set-up: Promega pNLF1-C (Nluc) #CCR010TN00; host or cells: HEK293T, transient (PEI); conditions: 12 (2000 nM)
T4 sequence (P32246 1-355): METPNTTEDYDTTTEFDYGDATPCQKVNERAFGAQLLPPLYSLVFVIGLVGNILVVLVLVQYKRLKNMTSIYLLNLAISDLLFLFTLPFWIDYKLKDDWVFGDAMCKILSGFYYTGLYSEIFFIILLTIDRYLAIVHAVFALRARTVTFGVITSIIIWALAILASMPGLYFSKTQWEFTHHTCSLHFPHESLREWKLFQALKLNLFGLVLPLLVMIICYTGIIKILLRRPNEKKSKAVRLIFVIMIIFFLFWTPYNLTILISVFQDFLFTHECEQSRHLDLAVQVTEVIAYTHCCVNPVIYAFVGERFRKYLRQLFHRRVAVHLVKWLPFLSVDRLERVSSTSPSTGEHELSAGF

[5] = molecular target: T4, CCR1; assay: Live cell NanoBRET binding assay, HEK293T cells expressing CCR1_Nluc; set-up: Promega pNLF1-C (Nluc) #CCR010TN00; host or cells: HEK293T, transient (PEI); conditions: 12 (1000 nM), live HEK293T cells; read-out: Ki, live cells
[6] = molecular target: T1, CCR2; set-up: method as in PMID 30256641; conditions: cited from earlier work
[7] = molecular target: T4, CCR1; set-up: Promega pNLF1-C (Nluc) #CCR010TN00; host or cells: HEK293T, transient (PEI); method as in PMID 30256641; conditions: binding; cited from earlier work
[8] = molecular target: T1, CCR2; set-up: method as in PMID 35838163; conditions: membrane-based setup; cited from earlier work
[9] = molecular target: T4, CCR1; assay: Membrane-based NanoBRET saturation binding assay, CCR1_Nluc membranes from HEK293T cells; set-up: Promega pNLF1-C (Nluc) #CCR010TN00; host or cells: HEK293T, transient (PEI); conditions: saturation binding of fluorescent ligand, read-out: KD (equilibrium, KD(eq.))
From the text: To evaluate the CCR1 affinity of previously reported (8–9) and new fluorescently labeled pyrrolones (11–12), we developed a NanoBRET-based binding assay (Figures 4A–H and S2A–J). To this end, we used a previously reported CCR1 construct (hereafter referred to as CCR1_Nluc) with a small and bright luciferase variant (nanoluciferase,[52] Nluc), fused to the intracellular C-terminus of CCR1 (Figures 4A and S2A).[47] […] This was expected, given the very low CCR2/CCR1 selectivity of the parental ligands 4 and 5 (Figure 1).[33] For further studies, we selected 12 due to its highest CCR1 affinity.
Cell culture: HEK293T cells were cultured as previously described.8 In brief, HEK293T cells (gift from Chair of Physiology, Prof. Dr. Alzheimer, FAU Erlangen-Nürnberg) were grown on 10 cm culture dishes at 37 °C and 5% CO2. As growth medium, Dulbecco's Modified Eagle Medium (DMEM)/F12 (Invitrogen) supplemented with 10% fetal bovine serum (FBS, Gibco™ Fetal Bovine Serum, qualified, Brazil), L-glutamine (final concentration: 2 mM; from Gibco™ L-glutamine 200 mM, 100X), penicillin (final concentration: 100 units/mL), and streptomycin (final concentration: 100 µg/mL; from Gibco™ Penicillin-Streptomycin 10,000 U/mL) was used. Cells were split every three to four days and regularly confirmed to be free of mycoplasma contamination using the luminescence-based MycoAlert Plus Kit (Lonza).
Transient transfection using polyethylenimine: For transfection, we used a previously published procedure.8 In brief, HEK293T cells were plated onto culture dishes (Ø 10 cm or Ø 15 cm) and grown to a confluence of approximately 50% at 37 °C and 5% CO2. The growth medium was renewed one-hour before transfection. The transfection mix was prepared, as described in the following. Solution A (0.4-2.2% total DNA (1-5.5 µg) in Gibco™ phosphate buffered saline, pH 7.4) and solution B (3% PEI (linear, 25 kDa, from Polysciences) solution prepared from a PEI stock solution (0.4 µg/µL) in PBS without MgCl2 and CaCl2) were mixed one to one, the resulting mixture was vortexed for 5 s and incubated for 30 min at room temperature. The pre-incubated transfection mix was added dropwise to the cells and cell cultivation was continued […]
Membrane preparation: Membranes were prepared as previously reported.8 In brief, membranes from HEK293T cells transiently expressing the respective GPCR were prepared as follows. The medium of the transfected cells was refreshed after 24 h before cells were harvested 48 h post-transfection. […]
Finally, the protein concentration was determined using the Lowry method.9 cDNA constructs: The CCR1-Nluc fusion construct (CCR1_Nluc) in pcDNA3.1 was generated as previously reported1 using the Gibson Assembly10 (New England Biolabs) method. […]

- inhibition at 100 µM [1]: 29%
- inhibition at 20 µM [2]: 15%
- inhibition at 20 µM [3]: 2%
- Ki ([4]; CCR1_Nluc membranes, read-out: Ki, CCR1 (converted)): 357 nM
- % inh. of tracer binding, CCR1 ([4]; compound at 20 μM): ≥ 50%
- Ki [5]: 1290 nM
Compound: NC(=O)CSc1nnc(-c2ccc(Cl)cc2)n1C1CCCCC1 [compound 43]

Compound: O=C(C1=C(O)C(=O)N(c2ccc(Br)cc2F)C1c1cccc(Br)c1)C1CC1 (stereo not drawn) [compound 6]
- CCR2, % @ 1 μM [6]: 45%
- CCR1 over CCR2 selectivity [7]: approximately 20 fold

- Kd [9]: 14900 ± 2100 nM
Compound: CN(C)c1ccc2c(-c3cc(C(=O)NCc4cn(CCCC(=O)C5=C(O)C(=O)N(c6ccc(Br)cc6F)C5C5CCCCC5)nn4)ccc3C(=O)[O-])c3ccc(=[N+](C)C)cc-3oc2c1 (stereo not drawn) [compound 9]
- Kd [8]: 2270 nM

- Kd [9]: 11300 ± 800 nM
Compound: CN(C)c1ccc2c(-c3cc(C(=O)NCc4cn(CCCC(=O)C5=C(O)C(=O)N(c6ccc(Cl)cc6F)C5C5CCCCC5)nn4)ccc3C(=O)[O-])c3ccc(=[N+](C)C)cc-3oc2c1 (stereo not drawn) [compound 8]
- Kd [8]: 2260 nM
